pKi: −log10 of the molar value. Where two headings read alike, the source gives them in different places.
Legend:
hCRTH2 [1] = biological target: T1, hCRTH2 (Homo sapiens, UniProt Q9Y5Y4); set-up: expressed in transfected cells; host or cells: HEK (human embryonic kidney) cell line expressing hCRTH2; settings: Radioligand Binding Assay B, 0.7 nM [3H]PGD2, HEK-hCRTH2 membranes; rated A-D
T1 sequence (Q9Y5Y4 1-395): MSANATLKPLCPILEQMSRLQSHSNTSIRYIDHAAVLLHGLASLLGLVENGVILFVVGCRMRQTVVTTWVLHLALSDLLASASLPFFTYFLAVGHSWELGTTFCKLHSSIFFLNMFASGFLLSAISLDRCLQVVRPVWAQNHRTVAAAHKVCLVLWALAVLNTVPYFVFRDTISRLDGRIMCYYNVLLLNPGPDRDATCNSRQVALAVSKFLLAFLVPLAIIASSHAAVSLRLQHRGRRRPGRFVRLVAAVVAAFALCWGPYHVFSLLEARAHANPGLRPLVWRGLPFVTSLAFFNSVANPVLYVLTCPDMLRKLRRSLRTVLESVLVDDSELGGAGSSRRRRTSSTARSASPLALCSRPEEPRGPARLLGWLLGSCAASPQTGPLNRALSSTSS
Procedure: Radioligand Binding Assay B.
Competing ligands were diluted in dimethylsulfoxide (Me2SO) that was kept constant at 1% (v/v) of the final incubation volume. The reaction was initiated by the addition of 8-20 μg of membrane protein prepared from a HEK-hCRTH2 cell line. Total and non-specific binding were determined in the absence and the presence of 10 μM PGD2, respectively. Under these conditions, specific binding (total minus non-specific) of the radioligand to the receptor reached equilibrium within 50 min and was stable up to 180 min. The reaction was routinely conducted for 60 min at room temperature and terminated by rapid filtration through prewetted Unifilters GF/C (Packard), using a Tomtec MachIII semi-automated harvester (for HEK-hCRTH2). The filters were then washed with 4 mL of the same buffer and residual radioligand bound to the filter was determined by liquid scintillation counting following equilibration in 25 μl Ultima Gold F™ (Unifilter) (Packard).

hCRTH2 [2] = biological target: T1, hCRTH2; experiment: biochemical; settings: Radioligand Binding Assay A, 3.0 nM [3H]PGD2, HEK-hCRTH2 membranes
Procedure: Radioligand Binding Assay A.
Competing ligands were diluted in dimethylsulfoxide (Me2SO) that was kept constant at 1% (v/v) of the final incubation volume. The reaction was initiated by the addition of 8-20 μg of membrane protein prepared from a human embryonic kidney (HEK)-hCRTH2 cell line. Total and non-specific binding were determined in the absence and the presence of 10 μM PGD2, respectively. Under these conditions, specific binding (total minus non-specific) of the radioligand to the receptor reached equilibrium within 50 min and was stable up to 180 min. The reaction was routinely conducted for 60 min at room temperature and terminated by rapid filtration through prewetted (0.3% polyethyleneimine) 96-well printed Filtermate™ (Wallac) using a Tomtec® harvester (Hamden, Conn.). After washing with cold buffer, the filter was dried for 2 minutes in microwave, and Meltilex Scintillator sheet (Wallac) was melted on for 2 min.

Structure (SMILES)	pKi (hCRTH2 [1])	pKi (hCRTH2 [2])
O=C(O)CCC(=O)N(C1CC1)[C@@H]1c2ccc(F)cc2N(C(=O)c2ccccc2)[C@@H]2CCC[C@@H]21 (racemic) [16D, 4-{cyclopropyl[cis, cis-6-fluoro-4-(phenylcarbonyl)-2,3,3a,4,9,9a-hexahydro-1H-cyclopenta[b]quinolin-9-yl]amino}-4-oxobutanoic acid]	6.70 to 7.70	–
CCc1ccc(C(=O)N2c3cc(Cl)ccc3C(N(C(=O)CCC(=O)O)C3CCC3)C3CCCC32)cc1 (single isomer, unassigned) [17CQ, 4-[[cis, cis-6-chloro-4-(4-ethylbenzoyl)-2,3,3a,4,9,9a-hexahydro-1H-cyclopenta[b]quinolin-9-yl]cyclobutylamino]-4-oxobutanoic acid]	–	8.62

Source: patent publication US20140128367A1, “CYCLOALKYL-FUSED TETRAHYDROQUINOLINES AS CRTH2 RECEPTOR MODULATORS” (Merck Sharp & Dohme Corp., priority 2011, published 2014)
